# Reference: PMC3742231 (International Journal of Molecular Sciences, 2013)
# pIC50: −log10 of the molar value. Where two headings read alike, the source gives them in different places.
# Tests used:
# [1] = tested on: CYP2B6; conditions: 20 μM, 48 h
# Procedure: (§1) Freshly isolated human hepatocytes were obtained from the UK Human Tissue Bank (Leicester, UK).
# (§2) Omeprazole (CYP1A2 inducer; 30 μM), phenobarbital (CYP2B6 inducer; 1 mM) and rifampicin (CYP2C9, CYP2C19, and CYP3A4 inducer; 50 μM) dissolved in dimethyl sulfoxide (0.5% v/v final), served as reference inducers.
# [2] = tested on: CYP1A2; conditions: 0.2, 2 and 20 μM for 48 h
# Procedure: as §1, §2
# [3] = tested on: CYP3A4; conditions: 20 μM, 48 h
# Procedure: as §1, §2
# [4] = biological target: T1, CYP1A2 (Homo sapiens, UniProt P05177); assay: biochemical
# T1 sequence (P05177 1-516): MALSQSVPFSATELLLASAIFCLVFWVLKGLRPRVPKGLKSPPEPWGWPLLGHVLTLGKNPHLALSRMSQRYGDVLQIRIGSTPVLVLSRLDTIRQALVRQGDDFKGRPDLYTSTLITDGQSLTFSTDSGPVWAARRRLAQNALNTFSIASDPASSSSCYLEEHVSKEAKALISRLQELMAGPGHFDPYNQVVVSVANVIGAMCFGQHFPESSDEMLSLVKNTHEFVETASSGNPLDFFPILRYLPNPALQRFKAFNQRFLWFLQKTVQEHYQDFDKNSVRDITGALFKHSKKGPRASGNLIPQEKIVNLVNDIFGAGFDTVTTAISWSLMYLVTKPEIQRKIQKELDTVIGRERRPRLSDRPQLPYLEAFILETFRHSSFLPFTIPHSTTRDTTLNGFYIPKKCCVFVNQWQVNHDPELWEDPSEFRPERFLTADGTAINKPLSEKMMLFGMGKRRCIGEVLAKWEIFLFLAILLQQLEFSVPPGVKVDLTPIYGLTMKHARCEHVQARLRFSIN
# Procedure: (§3) Human liver microsomes were prepared and pooled from ten human livers (HL20–24,28–32) as previously described. Human liver samples were obtained from the University Hospital of Oulu as surplus tissue from cadaver kidney transplant donors. The collection of surplus tissue was approved by the Ethics Committee of the Medical Faculty of the University of Oulu, Finland. All donors were Caucasians ranging in age from 21 to 62 years; four were female and six were male. Detailed information on each donor has been published previously. Protein concentrations were measured using the Bradford method.
# (§4) In vitro inhibition of CYP isoforms was first assessed using the N-in-one approach (also called the cocktail approach). CYP-selective substrates and reactions are listed in Table 1; concentrations were roughly at or below the respective Michaelis-Menten coefficients. […] A Micromass LCT time-of-flight high-resolution mass spectrometer (Micromass Ltd., Manchester, UK) equipped with a Z-spray electrospray ionization source was used for the monitoring of CYP-selective reactions. Integrated mass chromatogram peak areas were normalized versus internal standards before comparing metabolites in different preparations. More details of the assay are available in previous publications.
# [5] = biological target: CYP3A4 (Homo sapiens, UniProt P08684); assay: biochemical; conditions: human liver microsomes
# Sequence of CYP3A4 (Homo sapiens, UniProt P08684) (P08684 whole entry): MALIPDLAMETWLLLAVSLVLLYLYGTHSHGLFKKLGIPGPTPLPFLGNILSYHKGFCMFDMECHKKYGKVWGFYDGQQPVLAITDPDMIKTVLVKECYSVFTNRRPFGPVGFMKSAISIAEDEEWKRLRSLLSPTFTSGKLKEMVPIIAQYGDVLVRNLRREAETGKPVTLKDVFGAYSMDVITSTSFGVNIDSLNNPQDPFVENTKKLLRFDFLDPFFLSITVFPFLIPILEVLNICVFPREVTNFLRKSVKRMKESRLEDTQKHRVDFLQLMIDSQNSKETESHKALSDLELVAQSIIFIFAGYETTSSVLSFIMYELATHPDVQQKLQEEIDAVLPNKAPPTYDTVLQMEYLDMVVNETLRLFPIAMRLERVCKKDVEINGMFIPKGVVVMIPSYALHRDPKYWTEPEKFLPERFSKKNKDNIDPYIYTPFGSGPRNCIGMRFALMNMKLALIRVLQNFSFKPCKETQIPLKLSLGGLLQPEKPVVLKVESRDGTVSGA
# Procedure: as §3, §4
# [6] = biological target: T2, CYP2C8 (Homo sapiens, UniProt P10632); assay: N-in-one CYP inhibition assay in human liver microsomes; type of inhibition
# T2 sequence (P10632 1-490): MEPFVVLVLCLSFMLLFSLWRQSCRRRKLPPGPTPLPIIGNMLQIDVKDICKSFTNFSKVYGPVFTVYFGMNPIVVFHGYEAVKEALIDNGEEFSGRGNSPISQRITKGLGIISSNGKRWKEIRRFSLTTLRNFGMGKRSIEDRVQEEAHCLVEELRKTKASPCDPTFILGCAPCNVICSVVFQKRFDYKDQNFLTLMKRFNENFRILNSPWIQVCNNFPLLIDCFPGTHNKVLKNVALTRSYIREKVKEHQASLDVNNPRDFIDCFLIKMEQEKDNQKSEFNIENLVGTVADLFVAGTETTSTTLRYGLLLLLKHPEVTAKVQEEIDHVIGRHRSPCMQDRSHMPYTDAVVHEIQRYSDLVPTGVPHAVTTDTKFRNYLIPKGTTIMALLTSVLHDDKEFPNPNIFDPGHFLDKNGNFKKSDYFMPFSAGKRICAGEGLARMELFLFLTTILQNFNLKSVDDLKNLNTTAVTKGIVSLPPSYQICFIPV
# Procedure: as §3, §4
# (§5) Dixon, Lineweaver-Burk, Hanes, and Hofstee plots were used for the analysis of the type of inhibition.
# [7] = biological target: CYP2D6 (Homo sapiens, UniProt P10635); assay: as above
# Sequence of CYP2D6 (P10635 whole entry): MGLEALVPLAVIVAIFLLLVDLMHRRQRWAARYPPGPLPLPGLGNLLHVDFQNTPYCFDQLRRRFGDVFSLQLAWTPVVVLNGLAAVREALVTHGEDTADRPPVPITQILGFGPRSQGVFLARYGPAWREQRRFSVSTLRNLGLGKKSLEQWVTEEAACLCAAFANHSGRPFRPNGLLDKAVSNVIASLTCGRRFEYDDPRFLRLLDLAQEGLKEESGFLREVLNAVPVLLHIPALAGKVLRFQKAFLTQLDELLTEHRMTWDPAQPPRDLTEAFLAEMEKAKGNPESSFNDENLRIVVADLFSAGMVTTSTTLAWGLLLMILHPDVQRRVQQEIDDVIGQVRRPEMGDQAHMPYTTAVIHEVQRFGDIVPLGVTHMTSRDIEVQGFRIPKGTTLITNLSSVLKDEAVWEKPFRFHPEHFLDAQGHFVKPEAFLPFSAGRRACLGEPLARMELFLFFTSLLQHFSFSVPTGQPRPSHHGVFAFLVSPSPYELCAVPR
# Procedure: as §3, §4, §5
# [8] = biological target: CYP2E1 (Homo sapiens, UniProt P05181); assay: N-in-one CYP inhibition assay in human liver microsomes
# Sequence of CYP2E1 (P05181 whole entry): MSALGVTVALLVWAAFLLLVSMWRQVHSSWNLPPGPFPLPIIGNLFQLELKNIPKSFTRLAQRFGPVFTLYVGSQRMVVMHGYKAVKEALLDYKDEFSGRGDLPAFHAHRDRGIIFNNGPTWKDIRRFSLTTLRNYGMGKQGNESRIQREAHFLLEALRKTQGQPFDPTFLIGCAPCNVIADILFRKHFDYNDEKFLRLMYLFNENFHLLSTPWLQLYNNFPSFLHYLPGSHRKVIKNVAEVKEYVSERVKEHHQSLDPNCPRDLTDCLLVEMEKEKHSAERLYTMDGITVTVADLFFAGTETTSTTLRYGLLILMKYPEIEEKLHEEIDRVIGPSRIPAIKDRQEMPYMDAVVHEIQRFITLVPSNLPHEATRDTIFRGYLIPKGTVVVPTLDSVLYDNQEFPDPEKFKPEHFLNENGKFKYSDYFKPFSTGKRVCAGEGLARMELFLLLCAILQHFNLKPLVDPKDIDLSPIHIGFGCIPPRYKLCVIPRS
# Procedure: as §3, §4
# [9] = biological target: T3, CYP2A6 (Homo sapiens, UniProt P11509); assay: as above
# T3 sequence (P11509 1-494): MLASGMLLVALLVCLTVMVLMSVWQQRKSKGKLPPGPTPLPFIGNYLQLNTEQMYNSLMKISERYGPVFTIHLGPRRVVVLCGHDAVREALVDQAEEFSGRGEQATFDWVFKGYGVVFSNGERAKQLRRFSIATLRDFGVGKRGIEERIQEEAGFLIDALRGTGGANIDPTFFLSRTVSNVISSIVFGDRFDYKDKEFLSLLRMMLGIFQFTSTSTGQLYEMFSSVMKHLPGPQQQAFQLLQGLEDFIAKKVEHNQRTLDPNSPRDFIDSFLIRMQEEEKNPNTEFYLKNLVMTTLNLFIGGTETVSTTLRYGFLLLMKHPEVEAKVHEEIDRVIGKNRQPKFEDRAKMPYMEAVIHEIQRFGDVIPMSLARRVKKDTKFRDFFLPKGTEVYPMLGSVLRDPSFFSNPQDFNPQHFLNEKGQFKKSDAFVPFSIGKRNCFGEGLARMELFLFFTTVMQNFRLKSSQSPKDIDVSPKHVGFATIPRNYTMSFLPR
# Procedure: as §3, §4
# [10] = ref data on file, cited from earlier work
# [11] = Overall safety in the three clinical studies; assay type: in vivo, human; conditions: healthy postmenopausal women, with and without ospemifene
# Text: All experiments with human subjects were based on voluntary informed consent and the clinical study protocols had appropriate ethical and regulatory approval. Subjects were asked to immediately report any significant adverse events (AEs) that occurred during the study; minor AEs were reported at clinic visits. AEs were coded and classified according to the Medical Dictionary for Regulatory Activities.
# [12] = cited from earlier work
# [13] = steady state, converted from ng/mL
smiles,measurement,setting,value
OCCOc1ccc(/C(=C(/CCCl)c2ccccc2)c2ccccc2)cc1 [Ospemifene],Induction of CYP2B6 activity,[1],approximately two-fold
same,Change in CYP1A2 activity,[2],did not cause any relevant changes
same,Induction of CYP3A4 activity,[3],approximately two-fold
same,pIC50,[4],< 4.00
same,pIC50,"[5]; IC50, Midazolam 1′-hydroxylation, probe 0.4 μM",< 4.00
same,pIC50,"[5]; IC50, Omeprazole 3-hydroxylation, probe 2 μM",4.42
same,pIC50,"[5]; IC50, Omeprazole sulfoxidation, probe 2 μM",< 4.00
same,pIC50,"[5]; IC50, Testosterone 6β-hydroxylation, probe 1 μM",< 4.00
same,pIC50,[6],4.44
same,Type of inhibition,[6]; results not shown,likely competitive
same,pIC50,[7],4.31
same,Type of inhibition,[7]; results not shown,competitive
same,pIC50,[8],< 4.00
same,pIC50,[9],< 4.00
same,Change of serum concentrations of ospemifene,[10]; fluconazole pretreatment,increased
same,Change of serum concentrations of ospemifene,[10]; ketoconazole pretreatment,increased
same,Change of serum concentrations of ospemifene,[10]; omeprazole pretreatment,minimally changed
same,Change of serum concentrations of ospemifene,[10]; rifampicin pretreatment,reduced
same,Tolerability,[11],well tolerated
same,average plasma half-life,"[12]; introduction, no reference given",about 20 h
same,Cav at steady state,[12]; [13],~600 nM
same,Cmin at steady state,[12]; [13],~250 nM
same,Cmax,"[12]; steady state, converted from ng/mL, read-out: mean Cmax at steady state",~2000 nM
same,Cav at steady state,[12]; steady state,227 ng/mL
same,Cmin at steady state,[12]; steady state,94 ng/mL
same,mean Cmax at steady state,[12]; steady state,785 ng/mL
